This note sets out measurements from patent publication US11109593B2, “Isoxazolin-5-one derivative and herbicide containing same as active ingredient” (HOKKO CHEMICAL INDUSTRY CO., LTD., priority 2017, dated 2021).

Common to all, as to format: in vivo
In assay [1] the test system is Chenopodium album. Briefly: Test Example 4: herbicidal effect test by treatment of leave and stem in dry field farming (seven days after seeding). Conditions: 120 g/10a active ingredient; emulsion sprayed seven days after seeding; evaluated 14 days after treatment. An outline of the steps:
(§1)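 Weeds were seeded at 20 seeds per species into the top 1 cm of alluvial upland soil in pots, then sprayed 7 days after seeding with water-diluted emulsifiable concentrate at 100 L/10 a, giving 120 g active ingredient/10 a. Duplicate pots; herbicidal rate (%) was 14 days post-treatment, from dry weight versus untreated.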

For assay [2], the system named is Amaranthus viridis. The description is as above. Conditions: 120 g/10a active ingredient; emulsion sprayed seven days after seeding; evaluated 14 days after treatment. The method in brief: as §1
Assay [3] has as its system Echinochloa crus-galli. The description is as above. The note with it: 120 g/10a active ingredient; emulsion sprayed seven days after seeding; evaluated 14 days after treatment. An outline of the steps: as §1
The test system of assay [4] is southern crabgrass. The assay is described as above. Conditions: 120 g/10a active ingredient; emulsion sprayed seven days after seeding; evaluated 14 days after treatment. The method in brief:
as §1

Assay [5] deals with Scirpus juncoides. Nature of the assay: Test Example 2: herbicidal effect test by treatment during growing period in paddy rice cultivation (seven days after seeding). Conditions: 120 g/10a active ingredient, assessed 14 days after treatment, dry weight vs untreated area. The method in brief: (§2)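 Herbicidal rate (%) = {1 − treated/untreated mean plant dry weight} × 100, assessed in duplicate 14 days post-treatment. Emulsion formulations were diluted in water and dropped onto flooded (about 3 cm) paddy pots 7 days after seeding, giving 120 g a.i. per 10 ares. Plants were grown in a glass greenhouse.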

Assay [6] relates to broad leaf weeds (Lindernia pyxidaria and Monochoria vaginalis). The assay is described as above. The note with it: 120 g/10a active ingredient, assessed 14 days after treatment, dry weight vs untreated area. The method in brief: as §2
Assay [7] relates to Echinochloa crus-galli. The description is as above. The note with it: 120 g/10a active ingredient, assessed 14 days after treatment, dry weight vs untreated area. The method in brief:
as §2

Assay [8] has as its system Chenopodium album. Briefly: Test Example 3: herbicidal effect test by treatment of dry field farming soil (one day after seeding). The note with it: 120 g/10a active ingredient, evaluated 14 days after treatment. An outline of the steps:
(§3)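 Herbicidal rate (%) equals 1 minus treated/untreated mean plant dry weight, times 100, taken 14 days after treatment in duplicate pots. Emulsion diluted in water was applied at 100 L per 10 ares (120 g a.i. per 10 ares) one day after sowing 20 seeds per species into the top 1 cm of alluvial soil.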

Assay [9] deals with Amaranthus viridis. The description is as above. The note with it: 120 g/10a active ingredient, evaluated 14 days after treatment. An outline of the steps: as §3
Assay [10] has as its system Echinochloa crus-galli. Described as above. The note with it: 120 g/10a active ingredient, evaluated 14 days after treatment. An outline of the steps:
as §3

Assay [11] has as its system southern crabgrass. The description is as above. The note with it: 120 g/10a active ingredient, evaluated 14 days after treatment. An outline of the steps:
as §3

Assay [12] deals with Scirpus juncoides. Briefly: Test Example 1: herbicidal effect test by treatment of rice paddy soil (immediately after seeding). Conditions: 120 g/10a active ingredient, dry weight vs untreated area, 14 days after treatment. The method in brief: (§4)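 Pre-emergence paddy water application, 120 g a.i./10 ares, applied immediately post-seeding into ~3 cm flood; glasshouse; duplicate pots; dry weight at 14 d → % inhibition = (1 − treated/untreated) × 100.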

In assay [13] the test system is broad leaf weeds (Lindernia pyxidaria and Monochoria vaginalis). The assay is described as above. The note with it: 120 g/10a active ingredient, dry weight vs untreated area, 14 days after treatment. An outline of the steps:
as §4

Assay [14] relates to Echinochloa crus-galli. The description is as above. Conditions: 120 g/10a active ingredient, dry weight vs untreated area, 14 days after treatment. The method in brief:
as §4

Take `CCC(C)Cn1oc(=O)c(Cc2ccccc2N(S(C)(=O)=O)S(=O)(=O)C(F)(F)F)c1C` (stereo not shown) [Compound 1-895]: the “herbicidal effect (herbicidal rate), Chenopodium album” value (shortened to “herbicidal effect … Chenopodium album”) in the assay on Chenopodium album [1] is reported as 60%. Besides, the “herbicidal effect (herbicidal rate), Amaranthus viridis” value (“herbicidal effect … Amaranthus viridis” for short) in the assay on Amaranthus viridis [2] is recorded as 50%. For the same compound, the “herbicidal effect (herbicidal rate), Echinochloa crus-galli” value in the assay with Echinochloa crus-galli [3] is given as 80%. Moreover, the “herbicidal effect (herbicidal rate), southern crabgrass” value (“herbicidal effect … southern crabgrass” for short) in the assay on southern crabgrass [4] was determined as 80%. Moreover, the “Herbicidal rate (%) Scirpus juncoides” value with Scirpus juncoides [5] and with Scirpus juncoides [12] was 90% throughout. In addition, the “Herbicidal rate (%) Lindernia pyxidaria” value in [6] came out at 70%; in [13], 90%. For the same compound, the “Herbicidal rate (%) Monochoria vaginalis” value in [6] and in [13] was 80% in each case. The results for the “Herbicidal rate (%) Echinochloa crus-galli” value with Echinochloa crus-galli [7] and in the assay on Echinochloa crus-galli [14] were 90% and 100%, respectively. Further, the “herbicidal rate, Chenopodium album” value in the assay on Chenopodium album [8] amounted to 50%. The “herbicidal rate, Amaranthus viridis” value in the assay with Amaranthus viridis [9] worked out at 80%. The “herbicidal rate, Echinochloa crus-galli” value in the assay on Echinochloa crus-galli [10] worked out at 100%. The “herbicidal rate, southern crabgrass” value in the assay on southern crabgrass [11] is recorded as 100%.

Consider `COCC(C)n1oc(=O)c(Cc2ccccc2N(S(C)(=O)=O)S(=O)(=O)C(F)(F)F)c1C` (stereo not shown) [Compound 1-899], for which, in the assay on Chenopodium album [1], the “herbicidal effect … Chenopodium album” value is given as 40%. Also, in the assay on Amaranthus viridis [2], the “herbicidal effect … Amaranthus viridis” value was 40%. In addition, in the assay on Echinochloa crus-galli [3], the “herbicidal effect (herbicidal rate), Echinochloa crus-galli” value is 90%. For the same compound, in the assay with southern crabgrass [4], the “herbicidal effect … southern crabgrass” value is 90%. Also, the “Herbicidal rate (%) Scirpus juncoides” value in the assay on Scirpus juncoides [5] and in the assay with Scirpus juncoides [12] was 90% each time. The “Herbicidal rate (%) Lindernia pyxidaria” value in assay [6] and in assay [13] was 90% throughout. Also, the “Herbicidal rate (%) Monochoria vaginalis” value in [6] and in [13] was 90% throughout. In addition, the “Herbicidal rate (%) Echinochloa crus-galli” value with Echinochloa crus-galli [7] and with Echinochloa crus-galli [14] was 90% each time. The “herbicidal rate, Chenopodium album” value in the assay on Chenopodium album [8] amounted to 90%. The “herbicidal rate, Amaranthus viridis” value with Amaranthus viridis [9] amounted to 90%. For the same compound, the “herbicidal rate, Echinochloa crus-galli” value in the assay on Echinochloa crus-galli [10] came out at 90%. In the assay with southern crabgrass [11], the “herbicidal rate, southern crabgrass” value is 90%.

Take `CSCCn1oc(=O)c(Cc2ccccc2N(S(C)(=O)=O)S(=O)(=O)C(F)(F)F)c1C` [Compound 1-900]: the “herbicidal effect … Chenopodium album” value in the assay on Chenopodium album [1] was found to be 40%. Besides, in the assay on Amaranthus viridis [2], the “herbicidal effect … Amaranthus viridis” value is reported as 40%. Also, in the assay with Echinochloa crus-galli [3], the “herbicidal effect (herbicidal rate), Echinochloa crus-galli” value was determined as 90%. The “herbicidal effect … southern crabgrass” value in the assay with southern crabgrass [4] is given as 90%. Further, the “Herbicidal rate (%) Scirpus juncoides” value in the assay on Scirpus juncoides [5] and in the assay with Scirpus juncoides [12] was 90% each time. In addition, the “Herbicidal rate (%) Lindernia pyxidaria” value in [6] and in [13] was 90% in each case. The “Herbicidal rate (%) Monochoria vaginalis” value in assay [6] and in assay [13] was 90% in each case. The “Herbicidal rate (%) Echinochloa crus-galli” value with Echinochloa crus-galli [7] and with Echinochloa crus-galli [14] was 90% throughout. Further, in the assay on Chenopodium album [8], the “herbicidal rate, Chenopodium album” value is on record as 90%. The “herbicidal rate, Amaranthus viridis” value in the assay on Amaranthus viridis [9] was found to be 90%. Also, the “herbicidal rate, Echinochloa crus-galli” value in the assay on Echinochloa crus-galli [10] worked out at 90%. In addition, the “herbicidal rate, southern crabgrass” value with southern crabgrass [11] was 90%.

As for `Cc1c(Cc2ccccc2N(S(C)(=O)=O)S(=O)(=O)C(F)(F)F)c(=O)on1Cc1ccc(F)cc1` [Compound 1-906], in the assay with Chenopodium album [1], the “herbicidal effect … Chenopodium album” value came to 50%. Moreover, the “herbicidal effect … Amaranthus viridis” value with Amaranthus viridis [2] was determined as 100%. For the same compound, in the assay on Echinochloa crus-galli [3], the “herbicidal effect (herbicidal rate), Echinochloa crus-galli” value turned out to be 90%. In addition, the “herbicidal effect … southern crabgrass” value in the assay on southern crabgrass [4] came to 50%. Further, the “Herbicidal rate (%) Scirpus juncoides” value in the assay with Scirpus juncoides [5] and in the assay on Scirpus juncoides [12] was 100% throughout. The “Herbicidal rate (%) Lindernia pyxidaria” value in assay [6] and in assay [13] was 100% throughout. The “Herbicidal rate (%) Monochoria vaginalis” value in assay [6] and in assay [13] was 100% each time. The entries for the “Herbicidal rate (%) Echinochloa crus-galli” value with Echinochloa crus-galli [7] and in the assay on Echinochloa crus-galli [14] were 90% and 100%, respectively. Further, the “herbicidal rate, Chenopodium album” value in the assay on Chenopodium album [8] turned out to be 70%. Also, in the assay with Amaranthus viridis [9], the “herbicidal rate, Amaranthus viridis” value is recorded as 50%. Moreover, the “herbicidal rate, Echinochloa crus-galli” value in the assay with Echinochloa crus-galli [10] is 100%. The “herbicidal rate, southern crabgrass” value with southern crabgrass [11] was determined as 90%.

Take `Cc1c(Cc2ccccc2N(S(C)(=O)=O)S(=O)(=O)C(F)(F)F)c(=O)on1C(C)c1ccccc1` (stereo not shown) [Compound 1-907]: the “herbicidal effect … Chenopodium album” value in the assay with Chenopodium album [1] was 40%. The “herbicidal effect … Amaranthus viridis” value in the assay with Amaranthus viridis [2] was 40%. Moreover, in the assay with Echinochloa crus-galli [3], the “herbicidal effect (herbicidal rate), Echinochloa crus-galli” value is on record as 90%. Further, the “herbicidal effect … southern crabgrass” value in the assay with southern crabgrass [4] worked out at 90%. The “Herbicidal rate (%) Scirpus juncoides” value in the assay on Scirpus juncoides [5] and in the assay with Scirpus juncoides [12] was 90% throughout. For the same compound, the “Herbicidal rate (%) Lindernia pyxidaria” value in [6] and in assay [13] was 90% in each case. The “Herbicidal rate (%) Monochoria vaginalis” value in [6] and in assay [13] was 90% in each case. Also, the “Herbicidal rate (%) Echinochloa crus-galli” value with Echinochloa crus-galli [7] and in the assay with Echinochloa crus-galli [14] was 90% each time. For the same compound, the “herbicidal rate, Chenopodium album” value in the assay on Chenopodium album [8] is 90%. The “herbicidal rate, Amaranthus viridis” value with Amaranthus viridis [9] stood at 90%. In addition, the “herbicidal rate, Echinochloa crus-galli” value with Echinochloa crus-galli [10] came out at 90%. Moreover, the “herbicidal rate, southern crabgrass” value in the assay with southern crabgrass [11] came out at 90%.

In the case of `CCC(C)n1oc(=O)c(Cc2ccccc2N(S(=O)(=O)CC)S(=O)(=O)C(F)(F)F)c1C` (stereo not shown) [Compound 1-913], the “herbicidal effect … Chenopodium album” value with Chenopodium album [1] is given as 40%. In the assay on Amaranthus viridis [2], the “herbicidal effect … Amaranthus viridis” value is on record as 40%. The “herbicidal effect (herbicidal rate), Echinochloa crus-galli” value in the assay with Echinochloa crus-galli [3] is listed as 90%. Further, the “herbicidal effect … southern crabgrass” value with southern crabgrass [4] was 90%. For the same compound, the “Herbicidal rate (%) Scirpus juncoides” value in the assay on Scirpus juncoides [5] and with Scirpus juncoides [12] was 90% each time. Further, the “Herbicidal rate (%) Lindernia pyxidaria” value in [6] and in [13] was 90% each time. Also, the “Herbicidal rate (%) Monochoria vaginalis” value in assay [6] and in assay [13] was 90% each time. In addition, the “Herbicidal rate (%) Echinochloa crus-galli” value in the assay with Echinochloa crus-galli [7] and with Echinochloa crus-galli [14] was 90% each time. Besides, the “herbicidal rate, Chenopodium album” value in the assay with Chenopodium album [8] stood at 90%. Moreover, the “herbicidal rate, Amaranthus viridis” value in the assay on Amaranthus viridis [9] is on record as 90%. For the same compound, in the assay on Echinochloa crus-galli [10], the “herbicidal rate, Echinochloa crus-galli” value is 90%. The “herbicidal rate, southern crabgrass” value in the assay on southern crabgrass [11] was 90%.

`CCS(=O)(=O)N(c1ccccc1Cc1c(C)n(C(C)COC)oc1=O)S(=O)(=O)C(F)(F)F` (stereo not shown) [Compound 1-915]: in the assay with Chenopodium album [1], the “herbicidal effect … Chenopodium album” value is 40%. The “herbicidal effect … Amaranthus viridis” value in the assay on Amaranthus viridis [2] is on record as 40%. Moreover, in the assay on Echinochloa crus-galli [3], the “herbicidal effect (herbicidal rate), Echinochloa crus-galli” value stood at 90%. In the assay on southern crabgrass [4], the “herbicidal effect … southern crabgrass” value was 90%. The “Herbicidal rate (%) Scirpus juncoides” value in the assay with Scirpus juncoides [5] and in the assay with Scirpus juncoides [12] was 90% throughout. The “Herbicidal rate (%) Lindernia pyxidaria” value in assay [6] and in assay [13] was 90% in each case. Moreover, the “Herbicidal rate (%) Monochoria vaginalis” value in assay [6] and in assay [13] was 90% throughout. In addition, the “Herbicidal rate (%) Echinochloa crus-galli” value in the assay with Echinochloa crus-galli [7] and in the assay on Echinochloa crus-galli [14] was 90% each time. Further, the “herbicidal rate, Chenopodium album” value in the assay with Chenopodium album [8] came out at 90%. The “herbicidal rate, Amaranthus viridis” value with Amaranthus viridis [9] came to 90%. Besides, in the assay with Echinochloa crus-galli [10], the “herbicidal rate, Echinochloa crus-galli” value amounted to 90%. The “herbicidal rate, southern crabgrass” value in the assay on southern crabgrass [11] is 90%.
